According to ChEMBL document CHEMBL1142252, “Identification of aminopyrazolopyridine ureas as potent VEGFR/PDGFR multitargeted kinase inhibitors” (Bioorg Med Chem Lett, 2008):
≈ marks a conversion by molar mass, not a printed value. One block for each compound: values may come before it.

Key:
[1] = test system: Mus musculus; test: Inhibition of estradiol-induced uterine edema in mouse at 10 mg/kg, po; details: read-out: Inhibition
[2] = AUC in mouse at 10 mg/kg, po; assay type: ADME, organism-based; set-up: dose 10 mg/kg, route oral; details: plasma
[3] = Clearance in mouse at 3 mg/kg, iv; assay type: ADME, organism-based; set-up: dose 3 mg/kg, route intravenous; details: in vivo
[4] = Volume of distribution in mouse at 3 mg/kg, iv; assay type: ADME, organism-based; set-up: dose 3 mg/kg, route intravenous; details: in vivo
[5] = Half life in mouse at 3 mg/kg, iv; assay type: ADME, organism-based; set-up: dose 3 mg/kg, route intravenous; details: in vivo
[6] = Oral bioavailability in mouse at 10 mg/kg; assay type: ADME, organism-based; details: in vivo
[7] = Aqueous solubility at pH 7.2; assay type: physicochemical; details: buffer
[8] = target: T1, Receptor-type tyrosine-protein kinase FLT3 (Homo sapiens, UniProt P36888); test: Inhibition of FLT3 by HTRF assay
T1 sequence (P36888 whole entry): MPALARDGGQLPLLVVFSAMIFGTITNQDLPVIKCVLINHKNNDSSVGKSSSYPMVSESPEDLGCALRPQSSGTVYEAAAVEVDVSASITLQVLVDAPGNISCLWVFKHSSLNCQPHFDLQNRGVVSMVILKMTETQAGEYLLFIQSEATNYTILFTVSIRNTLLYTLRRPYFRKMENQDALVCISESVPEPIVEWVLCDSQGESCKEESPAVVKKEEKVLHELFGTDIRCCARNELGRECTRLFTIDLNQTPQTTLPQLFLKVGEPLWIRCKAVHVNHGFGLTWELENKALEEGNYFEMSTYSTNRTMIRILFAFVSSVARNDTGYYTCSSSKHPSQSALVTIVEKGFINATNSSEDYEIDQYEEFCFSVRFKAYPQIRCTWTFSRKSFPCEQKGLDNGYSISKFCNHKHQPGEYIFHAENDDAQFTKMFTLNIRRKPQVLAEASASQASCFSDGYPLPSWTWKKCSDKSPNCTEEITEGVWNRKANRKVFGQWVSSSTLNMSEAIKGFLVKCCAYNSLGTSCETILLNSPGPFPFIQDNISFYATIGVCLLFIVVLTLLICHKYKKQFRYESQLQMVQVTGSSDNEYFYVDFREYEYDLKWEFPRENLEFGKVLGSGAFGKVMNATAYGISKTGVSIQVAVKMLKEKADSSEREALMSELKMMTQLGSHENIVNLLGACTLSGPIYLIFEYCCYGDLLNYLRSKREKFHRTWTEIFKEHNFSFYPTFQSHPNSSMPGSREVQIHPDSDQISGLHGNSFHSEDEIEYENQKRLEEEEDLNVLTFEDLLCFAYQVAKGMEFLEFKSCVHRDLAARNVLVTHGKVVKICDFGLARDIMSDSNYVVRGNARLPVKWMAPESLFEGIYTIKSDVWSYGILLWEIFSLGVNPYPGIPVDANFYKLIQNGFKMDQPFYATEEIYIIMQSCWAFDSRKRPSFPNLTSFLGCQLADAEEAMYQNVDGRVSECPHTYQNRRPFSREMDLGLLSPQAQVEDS

[9] = target: Tyrosine-protein kinase Fyn (Homo sapiens, UniProt P06241); test: Inhibition of FYN by HTRF assay
Chain of Tyrosine-protein kinase Fyn (P06241 whole entry): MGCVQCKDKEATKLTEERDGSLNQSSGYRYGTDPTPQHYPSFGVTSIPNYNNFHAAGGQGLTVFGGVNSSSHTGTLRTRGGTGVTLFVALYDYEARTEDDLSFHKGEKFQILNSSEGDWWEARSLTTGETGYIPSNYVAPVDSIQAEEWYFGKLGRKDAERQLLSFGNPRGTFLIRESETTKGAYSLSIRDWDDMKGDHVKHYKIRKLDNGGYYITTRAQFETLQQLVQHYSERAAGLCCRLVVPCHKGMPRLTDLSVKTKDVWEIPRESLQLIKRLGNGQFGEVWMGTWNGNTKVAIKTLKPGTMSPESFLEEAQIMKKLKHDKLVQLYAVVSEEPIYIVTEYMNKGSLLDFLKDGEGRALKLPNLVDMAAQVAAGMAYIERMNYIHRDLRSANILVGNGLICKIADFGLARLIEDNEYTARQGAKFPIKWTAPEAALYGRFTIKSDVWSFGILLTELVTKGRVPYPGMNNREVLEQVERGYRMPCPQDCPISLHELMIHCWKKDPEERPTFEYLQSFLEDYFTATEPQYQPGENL

[10] = target: Mast/stem cell growth factor receptor Kit (Homo sapiens, UniProt P10721); test: Inhibition of cKit by HTRF assay
[11] = target: Macrophage colony-stimulating factor 1 receptor (Homo sapiens, UniProt P07333); test: Inhibition of CSF1R by HTRF assay
Chain of Macrophage colony-stimulating factor 1 receptor (P07333 whole entry): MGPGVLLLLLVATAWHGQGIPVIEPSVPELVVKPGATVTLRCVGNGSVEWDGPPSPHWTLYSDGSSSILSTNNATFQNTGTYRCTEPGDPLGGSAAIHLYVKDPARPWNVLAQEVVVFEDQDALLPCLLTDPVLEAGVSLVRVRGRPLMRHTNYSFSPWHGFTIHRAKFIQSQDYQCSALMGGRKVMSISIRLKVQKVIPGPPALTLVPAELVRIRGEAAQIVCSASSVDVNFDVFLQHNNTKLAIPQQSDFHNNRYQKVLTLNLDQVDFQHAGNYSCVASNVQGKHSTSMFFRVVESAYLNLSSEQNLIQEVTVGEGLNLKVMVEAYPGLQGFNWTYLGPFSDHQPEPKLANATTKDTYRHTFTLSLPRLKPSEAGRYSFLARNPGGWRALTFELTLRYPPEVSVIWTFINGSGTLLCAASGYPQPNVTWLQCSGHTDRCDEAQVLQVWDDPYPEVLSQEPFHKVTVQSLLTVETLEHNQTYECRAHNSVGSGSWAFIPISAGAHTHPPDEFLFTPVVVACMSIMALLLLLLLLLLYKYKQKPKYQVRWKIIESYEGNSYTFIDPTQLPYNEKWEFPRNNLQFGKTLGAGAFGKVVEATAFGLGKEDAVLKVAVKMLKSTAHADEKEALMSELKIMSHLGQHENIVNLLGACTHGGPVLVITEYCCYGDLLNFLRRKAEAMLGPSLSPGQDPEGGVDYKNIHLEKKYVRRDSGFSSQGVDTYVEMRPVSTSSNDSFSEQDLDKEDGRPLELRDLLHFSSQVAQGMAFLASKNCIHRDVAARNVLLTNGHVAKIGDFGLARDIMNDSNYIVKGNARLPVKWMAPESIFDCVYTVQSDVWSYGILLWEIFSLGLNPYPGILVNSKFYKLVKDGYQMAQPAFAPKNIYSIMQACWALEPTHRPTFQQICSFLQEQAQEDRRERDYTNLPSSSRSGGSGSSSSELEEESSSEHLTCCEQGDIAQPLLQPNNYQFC

[12] = target: Vascular endothelial growth factor receptor 1 (Homo sapiens, UniProt P17948); test: Inhibition of FLT1 by HTRF assay
Chain of Vascular endothelial growth factor receptor 1 (P17948 whole entry): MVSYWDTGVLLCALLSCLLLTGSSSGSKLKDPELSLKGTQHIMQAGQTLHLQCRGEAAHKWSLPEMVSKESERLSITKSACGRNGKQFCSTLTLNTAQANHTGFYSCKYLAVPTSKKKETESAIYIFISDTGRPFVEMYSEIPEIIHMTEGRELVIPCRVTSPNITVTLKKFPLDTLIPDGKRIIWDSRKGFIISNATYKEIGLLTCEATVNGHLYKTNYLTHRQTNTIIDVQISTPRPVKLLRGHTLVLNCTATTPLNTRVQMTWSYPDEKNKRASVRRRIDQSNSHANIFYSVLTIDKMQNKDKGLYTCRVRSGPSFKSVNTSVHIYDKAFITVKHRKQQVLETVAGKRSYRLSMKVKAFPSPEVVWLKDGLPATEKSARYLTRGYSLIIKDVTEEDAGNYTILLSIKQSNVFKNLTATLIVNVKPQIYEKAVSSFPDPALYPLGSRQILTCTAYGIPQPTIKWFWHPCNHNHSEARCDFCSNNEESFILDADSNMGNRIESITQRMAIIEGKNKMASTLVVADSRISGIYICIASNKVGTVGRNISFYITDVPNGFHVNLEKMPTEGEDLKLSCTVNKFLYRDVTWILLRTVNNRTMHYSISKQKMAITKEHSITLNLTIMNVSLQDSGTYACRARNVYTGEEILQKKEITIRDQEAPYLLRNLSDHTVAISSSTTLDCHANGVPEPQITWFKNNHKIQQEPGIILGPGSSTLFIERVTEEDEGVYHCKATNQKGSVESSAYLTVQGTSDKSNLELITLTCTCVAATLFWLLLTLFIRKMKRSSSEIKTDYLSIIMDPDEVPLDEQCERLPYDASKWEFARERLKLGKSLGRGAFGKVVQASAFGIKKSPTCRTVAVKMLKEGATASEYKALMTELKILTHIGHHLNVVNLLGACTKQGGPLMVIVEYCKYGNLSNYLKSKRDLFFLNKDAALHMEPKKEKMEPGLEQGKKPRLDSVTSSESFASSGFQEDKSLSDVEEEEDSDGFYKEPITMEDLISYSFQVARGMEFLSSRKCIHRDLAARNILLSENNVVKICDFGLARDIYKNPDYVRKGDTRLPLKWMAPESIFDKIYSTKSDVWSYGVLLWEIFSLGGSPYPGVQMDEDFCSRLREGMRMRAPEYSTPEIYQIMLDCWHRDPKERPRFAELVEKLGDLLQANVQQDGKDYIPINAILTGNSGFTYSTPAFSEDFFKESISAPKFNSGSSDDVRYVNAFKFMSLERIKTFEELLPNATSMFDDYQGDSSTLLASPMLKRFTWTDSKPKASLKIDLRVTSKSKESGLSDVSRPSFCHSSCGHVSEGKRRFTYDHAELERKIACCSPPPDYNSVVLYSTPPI

[13] = target: T2, Vascular endothelial growth factor receptor 2 (Homo sapiens, UniProt P35968)
T2 sequence (P35968 whole entry): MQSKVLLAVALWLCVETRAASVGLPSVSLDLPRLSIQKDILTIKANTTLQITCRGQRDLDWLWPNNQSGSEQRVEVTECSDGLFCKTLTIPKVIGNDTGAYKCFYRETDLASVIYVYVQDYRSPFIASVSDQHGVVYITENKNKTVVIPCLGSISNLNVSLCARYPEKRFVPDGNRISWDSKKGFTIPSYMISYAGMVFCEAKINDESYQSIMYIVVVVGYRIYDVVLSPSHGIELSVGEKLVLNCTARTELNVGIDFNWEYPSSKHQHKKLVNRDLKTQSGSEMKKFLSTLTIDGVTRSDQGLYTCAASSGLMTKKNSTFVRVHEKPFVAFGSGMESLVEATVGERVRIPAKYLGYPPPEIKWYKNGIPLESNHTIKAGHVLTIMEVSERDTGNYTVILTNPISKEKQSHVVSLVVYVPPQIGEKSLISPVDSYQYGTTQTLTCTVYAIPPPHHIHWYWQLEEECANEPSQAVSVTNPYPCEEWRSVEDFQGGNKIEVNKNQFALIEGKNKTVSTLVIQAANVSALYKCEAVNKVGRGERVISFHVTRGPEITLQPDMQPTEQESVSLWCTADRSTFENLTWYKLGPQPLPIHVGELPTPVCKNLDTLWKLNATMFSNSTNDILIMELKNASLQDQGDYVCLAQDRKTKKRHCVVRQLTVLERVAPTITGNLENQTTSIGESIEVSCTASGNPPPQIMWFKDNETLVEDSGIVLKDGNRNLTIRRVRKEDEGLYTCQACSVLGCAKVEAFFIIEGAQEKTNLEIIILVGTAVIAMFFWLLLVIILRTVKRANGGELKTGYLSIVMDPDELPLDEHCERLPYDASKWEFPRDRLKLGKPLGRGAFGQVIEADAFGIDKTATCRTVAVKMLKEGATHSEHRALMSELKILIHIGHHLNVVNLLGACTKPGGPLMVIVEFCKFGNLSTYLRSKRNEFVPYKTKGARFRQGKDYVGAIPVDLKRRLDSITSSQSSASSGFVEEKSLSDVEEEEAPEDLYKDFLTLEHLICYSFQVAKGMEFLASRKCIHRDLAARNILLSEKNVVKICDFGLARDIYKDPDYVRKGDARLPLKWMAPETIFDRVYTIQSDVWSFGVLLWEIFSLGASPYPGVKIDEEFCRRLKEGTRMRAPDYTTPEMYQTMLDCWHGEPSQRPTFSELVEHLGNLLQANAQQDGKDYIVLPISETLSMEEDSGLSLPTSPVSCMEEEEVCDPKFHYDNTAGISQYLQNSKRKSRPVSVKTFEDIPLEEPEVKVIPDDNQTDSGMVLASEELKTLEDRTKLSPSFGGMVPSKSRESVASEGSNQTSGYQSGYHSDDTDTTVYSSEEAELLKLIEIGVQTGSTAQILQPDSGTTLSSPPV
Description: Inhibition of KDR by HTRF assay

[14] = target: T2, Vascular endothelial growth factor receptor 2; remark: listed apart in the source
Description: Inhibition of VEGF-induced human KDR phosphorylation in mouse 3T3 cells

- AUC [2]: 15.7 µM·h
- clearance [3]: 17.3 mL/min/kg
- Vd [4]: 1.5 L/kg
- half-life [5]: 60 min
- bioavailability [6]: 62%
SMILES: Cc1ccc(F)c(NC(=O)Nc2ccc(-c3ccnc4[nH]nc(N)c34)cc2)c1
- inhibition in vivo at 10 mg/kg [1]: 66%

SMILES: Cc1cc(C)cc(NC(=O)Nc2ccc(-c3ccnc4[nH]nc(N)c34)cc2)c1
- inhibition in vivo at 10 mg/kg [1]: 77%

- solubility [7]: 1.6 µM (≈ 0.606 µg/mL)
SMILES: Nc1n[nH]c2nccc(-c3ccc(NC(=O)Nc4cccc(Cl)c4)cc3)c12
- inhibition in vivo at 10 mg/kg [1]: 23%

SMILES: Nc1n[nH]c2nccc(-c3ccc(NC(=O)Nc4cccc(C(F)(F)F)c4)cc3)c12
- IC50 [8]: 2 nM
- IC50 [9]: 11800 nM
- IC50 [10]: 7 nM
- IC50 [11]: 3 nM
- IC50 [12]: 5 nM

SMILES: Cc1ccc(NC(=O)Nc2ccc(-c3ccnc4[nH]nc(N)c34)cc2)cc1
- inhibition in vivo at 10 mg/kg [1]: < 5%

SMILES: Nc1n[nH]c2nccc(-c3ccc(NC(=O)Nc4ccc(F)c(Cl)c4)cc3)c12
- inhibition in vivo at 10 mg/kg [1]: 55%

SMILES: Nc1n[nH]c2cncc(-c3ccc(NC(=O)Nc4cc(C(F)(F)F)ccc4F)cc3)c12
- inhibition in vivo at 10 mg/kg [1]: 35%

SMILES: Cn1nc(N)c2c(-c3ccc(NC(=O)Nc4ccc(F)c(C(F)(F)F)c4)cc3)cncc21
- inhibition in vivo at 10 mg/kg [1]: 59%

- IC50 [13]: 35 nM
- IC50 [14]: 2.2 nM
SMILES: Cc1ccccc1NC(=O)Nc1ccc(-c2ccnc3[nH]nc(N)c23)cc1
- inhibition in vivo at 10 mg/kg [1]: < 5%

- solubility [7]: 5.8 µM (≈ 2.18 µg/mL)
SMILES: Cc1ccc(F)c(NC(=O)Nc2ccc(-c3cncc4[nH]nc(N)c34)cc2)c1
- inhibition in vivo at 10 mg/kg [1]: 98%

- AUC [2]: 0.89 µM·h
- clearance [3]: 43.7 mL/min/kg
- Vd [4]: 1.71 L/kg
- half-life [5]: 27 min
- bioavailability [6]: 9%
SMILES: Cc1cc(C)cc(NC(=O)Nc2ccc(-c3nccc4[nH]nc(N)c34)cc2)c1
- inhibition in vivo at 10 mg/kg [1]: < 5%

SMILES: Cc1cccc(NC(=O)Nc2ccc(-c3cncc4[nH]nc(N)c34)cc2)c1
- inhibition in vivo at 10 mg/kg [1]: 50%

SMILES: Cc1cc(NC(=O)Nc2ccc(-c3ccnc4[nH]nc(N)c34)cc2)ccc1F
- inhibition in vivo at 10 mg/kg [1]: 108%

- IC50 [13]: 7.7 nM
- AUC [2]: 30.2 µM·h
- clearance [3]: 11.5 mL/min/kg
- IC50 [14]: 3 nM
- Vd [4]: 1.48 L/kg
- half-life [5]: 90 min
- bioavailability [6]: 81%
SMILES: Cc1ccc(F)c(NC(=O)Nc2ccc(-c3cncc4c3c(N)nn4C)cc2)c1
- inhibition in vivo at 10 mg/kg [1]: 72%

SMILES: Nc1n[nH]c2nccc(-c3ccc(NC(=O)Nc4ccccc4)cc3)c12
- inhibition in vivo at 10 mg/kg [1]: 39%

- solubility [7]: 9.5 µM (≈ 3.58 µg/mL)
SMILES: Cc1ccc(F)c(NC(=O)Nc2ccc(-c3nccc4[nH]nc(N)c34)cc2)c1
- inhibition in vivo at 10 mg/kg [1]: < 5%

SMILES: Nc1n[nH]c2cncc(-c3ccc(NC(=O)Nc4cccc(Cl)c4)cc3)c12
- inhibition in vivo at 10 mg/kg [1]: < 5%

SMILES: Cn1nc(N)c2c(-c3ccc(NC(=O)Nc4cccc(Cl)c4)cc3)cncc21
- inhibition in vivo at 10 mg/kg [1]: 52%

- AUC [2]: 25 µM·h
- clearance [3]: 12.7 mL/min/kg
- Vd [4]: 0.66 L/kg
- half-life [5]: 36 min
- bioavailability [6]: 71%
SMILES: Cc1cccc(NC(=O)Nc2ccc(-c3cncc4c3c(N)nn4C)cc2)c1
- inhibition in vivo at 10 mg/kg [1]: 79%

SMILES: Nc1n[nH]c2ccnc(-c3ccc(NC(=O)Nc4cccc(C(F)(F)F)c4)cc3)c12
- inhibition in vivo at 10 mg/kg [1]: < 5%

SMILES: Cc1cc(NC(=O)Nc2ccc(-c3cncc4[nH]nc(N)c34)cc2)ccc1F
- inhibition in vivo at 10 mg/kg [1]: 19%

SMILES: Cc1cc(NC(=O)Nc2ccc(-c3nccc4[nH]nc(N)c34)cc2)ccc1F
- inhibition in vivo at 10 mg/kg [1]: < 5%

- solubility [7]: 0.07 µM (≈ 0.0263 µg/mL)
SMILES: Cc1ccc(F)c(NC(=O)Nc2ccc(-c3cccc4[nH]nc(N)c34)cc2)c1 [LINIFANIB]
